Laboratory results reported in patent publication US9295732B2, “Conjugated TLR7 and/or TLR8 and TLR2 polycationic agonists” (CAYLA, priority 2013, dated 2016).
Values joined by “and” are separate entries in the source; they are usually repeats but may differ in a detail not shown here. Identical values can stand only once.

What was measured:
B16-F1 tumor = assay: In vivo mouse B16-F1 tumor model, molecule alone; parameters: species or system C57BL/6 mice; conditions: by day 42, intra-tumoral injections, FIG. 8B
Method: Measurements were performed under gas anesthesia.
The second group received intra-tumoral injections of CL413 molecule alone (a TLR7-TLR2 Pam2CSK4-based molecule). Third and forth groups received intra-tumoral injections of the TLR2 ligand, Pam2CSK4 alone, and the TLR7 ligand alone, respectively. A fifth group received a combined treatment of Pam2CSK4 and TLR7 ligand, in solution at the equivalent molecule quantity of the respective TLR2 and TLR7 moieties in CL413 (in 100 μl Bionolyte G5® with Pluronic® F-68 2%) for a total of 3 injections.

human TLR2 = target: T1, human TLR2 (Homo sapiens, UniProt O60603); assay: HEK-Blue hTLR2 NF-κB/AP-1 SEAP reporter assay; format: cell-based; conditions: HEK-Blue hTLR2 cells, 10 μg/mL to 10 pg/ml, 24 hours, OD at 655 nm, FIG. 3
T1 construct: host or cells: HEK293 (HEK-Blue™ hTLR2)
T1 sequence (O60603 21-784): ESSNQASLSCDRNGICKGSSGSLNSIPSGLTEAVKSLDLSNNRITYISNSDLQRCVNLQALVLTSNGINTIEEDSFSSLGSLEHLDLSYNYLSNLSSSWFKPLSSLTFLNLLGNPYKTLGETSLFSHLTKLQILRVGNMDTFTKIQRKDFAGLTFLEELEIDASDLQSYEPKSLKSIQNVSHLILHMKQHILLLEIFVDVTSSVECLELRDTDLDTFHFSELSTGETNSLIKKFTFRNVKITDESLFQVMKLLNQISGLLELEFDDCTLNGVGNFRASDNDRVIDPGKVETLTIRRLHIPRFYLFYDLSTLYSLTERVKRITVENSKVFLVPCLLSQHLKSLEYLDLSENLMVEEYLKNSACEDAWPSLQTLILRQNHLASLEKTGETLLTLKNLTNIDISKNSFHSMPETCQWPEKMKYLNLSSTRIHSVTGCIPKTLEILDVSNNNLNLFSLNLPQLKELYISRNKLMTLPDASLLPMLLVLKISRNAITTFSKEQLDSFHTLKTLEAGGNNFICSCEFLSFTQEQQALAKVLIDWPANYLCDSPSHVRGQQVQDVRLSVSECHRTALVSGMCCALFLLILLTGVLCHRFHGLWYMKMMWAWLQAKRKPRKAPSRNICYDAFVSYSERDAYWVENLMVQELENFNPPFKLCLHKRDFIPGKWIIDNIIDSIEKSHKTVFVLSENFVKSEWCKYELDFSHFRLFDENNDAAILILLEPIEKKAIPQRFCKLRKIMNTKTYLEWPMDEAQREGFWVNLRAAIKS
Method: (§1) Cell-based assays were carried out using TLR7 and TLR2 reporter cell lines (InvivoGen). The reporter cell lines are engineered HEK293 cells, a human embryonic kidney cell line (ATCC, CRL-1573) that stably express either murine TLR7 (HEK-Blue™ mTLR7) or human TLR7 (HEK-Blue™ hTLR7) or human TLR2 (HEK-Blue™ hTLR2) with an NF-κB-inducible secreted embryonic alkaline phosphatase (SEAP) as the reporter gene. The SEAP reporter gene is under the control of the NF-κB and AP-1-inducible promoter, which, upon treatment with a corresponding TLR ligand and activation of NF-κB and AP-1, induces the production of SEAP. Detection of SEAP is measured following culturing cells in HEK-Blue™ Detection media (InvivoGen). HEK-Blue™ Detection contains a SEAP substrate that when hydrolysed by SEAP produces a colorimetric change allowing for detection of SEAP as the protein is secreted. […] These assays were carried out using RAW-Blue™ Cells (InvivoGen), derived from RAW 264.7 mouse leukemic monocyte macrophage cell line (ATCC, CRL 2278) stably overexpressing a NF-B/AP-1 inducible SEAP reporter constructs.
(§2) To perform the assay, cells were seeded on 96 well microliter plates at 50,000 or 100,000 cells per well for HEK-Blue™ Cells and RAW-Blue™ Cells respectively, and cultured at 37° C. in the presence of the conjugated compounds The TLR7-TLR2 polyamine molecules were prepared as follows: First, stock solutions of the conjugated compounds of the invention were prepared in ethanol or water to a concentration of 10 mg/ml.
(§3) The working dilutions of the conjugated TLR7-TLR2 polyamine agonists made up in water or PBS were directly added to the reporter cell lines at a final concentration ranging from 10 μg/mL to 10 pg/ml and incubated at 37° C. for 24 hours. After 24 hours of incubation, the effect on reporter gene activity was determined by reading the OD at 655 nm using iMark™ Microplate Reader (BIO-RAD).

murine TLR7 = target: T2, murine TLR7 (Mus musculus, UniProt P58681); assay: HEK-Blue mTLR7 NF-κB/AP-1 SEAP reporter assay; format: cell-based; conditions: HEK-Blue mTLR7 cells, 10 μg/mL to 10 pg/ml, 24 hours, OD at 655 nm, FIG. 2
T2 construct: host or cells: HEK293 (HEK-Blue™ mTLR7)
T2 sequence (P58681 27-1050): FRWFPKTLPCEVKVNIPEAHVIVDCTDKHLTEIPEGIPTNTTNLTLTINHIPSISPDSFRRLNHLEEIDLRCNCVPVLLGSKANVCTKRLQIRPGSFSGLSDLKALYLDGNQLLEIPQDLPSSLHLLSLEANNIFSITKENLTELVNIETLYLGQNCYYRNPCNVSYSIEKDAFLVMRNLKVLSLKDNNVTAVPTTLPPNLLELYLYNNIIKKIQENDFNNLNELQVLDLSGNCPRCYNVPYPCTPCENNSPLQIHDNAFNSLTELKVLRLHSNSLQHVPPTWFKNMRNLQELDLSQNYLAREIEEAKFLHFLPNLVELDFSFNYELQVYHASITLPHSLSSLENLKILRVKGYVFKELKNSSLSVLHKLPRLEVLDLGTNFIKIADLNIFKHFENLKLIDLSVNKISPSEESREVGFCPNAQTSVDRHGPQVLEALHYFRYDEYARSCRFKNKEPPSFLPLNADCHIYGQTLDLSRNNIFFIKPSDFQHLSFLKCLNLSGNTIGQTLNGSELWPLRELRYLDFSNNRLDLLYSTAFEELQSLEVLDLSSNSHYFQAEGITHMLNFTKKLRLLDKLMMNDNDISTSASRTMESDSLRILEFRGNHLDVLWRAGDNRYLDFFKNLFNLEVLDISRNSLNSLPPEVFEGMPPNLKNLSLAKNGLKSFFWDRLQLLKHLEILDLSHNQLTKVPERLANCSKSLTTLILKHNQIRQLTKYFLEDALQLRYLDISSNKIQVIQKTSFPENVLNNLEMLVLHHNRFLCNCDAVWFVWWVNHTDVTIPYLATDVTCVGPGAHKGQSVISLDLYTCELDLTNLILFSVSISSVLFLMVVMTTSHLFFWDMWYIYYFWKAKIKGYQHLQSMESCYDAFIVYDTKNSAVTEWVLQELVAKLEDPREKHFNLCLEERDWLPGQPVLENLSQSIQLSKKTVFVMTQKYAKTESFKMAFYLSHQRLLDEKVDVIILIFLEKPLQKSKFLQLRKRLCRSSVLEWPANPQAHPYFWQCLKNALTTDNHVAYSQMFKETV
Method: as §1, §2, §3

[1] = Nanoparticle (lipoplex) size by dynamic light scattering; conditions: 25° C., triplicate; for Mean Diameter: complexes with pDNA 3:24 (w:w), dynamic light scattering; for PDI: polydispersity index of complexes with pDNA 3:24 (w:w);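 for all read-outs here: lipoplexes of TLR7-TLR2 polyamine conjugates with plasmid DNA, formed over 30 min at room temperature in serum-free medium or 5% glucose, diameter in nm, PDI dimensionless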
[2] = system: endogenous TLR2 and TLR7 in RAW-Blue™ Cells; assay: RAW-Blue Cells NF-κB/AP-1 SEAP reporter assay; format: cell-based, mouse; conditions: 24 hours, OD at 655 nm, FIG. 4
Method: as §1, §2, §3

human TLR7 = target: T3, human TLR7 (Homo sapiens, UniProt Q9NYK1); assay: HEK-Blue hTLR7 NF-κB/AP-1 SEAP reporter assay; format: cell-based; conditions: HEK-Blue hTLR7 cells, 10 μg/mL to 10 pg/ml, 24 hours, OD at 655 nm, FIG. 1
T3 construct: host or cells: HEK293 (HEK-Blue™ hTLR7)
T3 sequence (Q9NYK1 27-1049): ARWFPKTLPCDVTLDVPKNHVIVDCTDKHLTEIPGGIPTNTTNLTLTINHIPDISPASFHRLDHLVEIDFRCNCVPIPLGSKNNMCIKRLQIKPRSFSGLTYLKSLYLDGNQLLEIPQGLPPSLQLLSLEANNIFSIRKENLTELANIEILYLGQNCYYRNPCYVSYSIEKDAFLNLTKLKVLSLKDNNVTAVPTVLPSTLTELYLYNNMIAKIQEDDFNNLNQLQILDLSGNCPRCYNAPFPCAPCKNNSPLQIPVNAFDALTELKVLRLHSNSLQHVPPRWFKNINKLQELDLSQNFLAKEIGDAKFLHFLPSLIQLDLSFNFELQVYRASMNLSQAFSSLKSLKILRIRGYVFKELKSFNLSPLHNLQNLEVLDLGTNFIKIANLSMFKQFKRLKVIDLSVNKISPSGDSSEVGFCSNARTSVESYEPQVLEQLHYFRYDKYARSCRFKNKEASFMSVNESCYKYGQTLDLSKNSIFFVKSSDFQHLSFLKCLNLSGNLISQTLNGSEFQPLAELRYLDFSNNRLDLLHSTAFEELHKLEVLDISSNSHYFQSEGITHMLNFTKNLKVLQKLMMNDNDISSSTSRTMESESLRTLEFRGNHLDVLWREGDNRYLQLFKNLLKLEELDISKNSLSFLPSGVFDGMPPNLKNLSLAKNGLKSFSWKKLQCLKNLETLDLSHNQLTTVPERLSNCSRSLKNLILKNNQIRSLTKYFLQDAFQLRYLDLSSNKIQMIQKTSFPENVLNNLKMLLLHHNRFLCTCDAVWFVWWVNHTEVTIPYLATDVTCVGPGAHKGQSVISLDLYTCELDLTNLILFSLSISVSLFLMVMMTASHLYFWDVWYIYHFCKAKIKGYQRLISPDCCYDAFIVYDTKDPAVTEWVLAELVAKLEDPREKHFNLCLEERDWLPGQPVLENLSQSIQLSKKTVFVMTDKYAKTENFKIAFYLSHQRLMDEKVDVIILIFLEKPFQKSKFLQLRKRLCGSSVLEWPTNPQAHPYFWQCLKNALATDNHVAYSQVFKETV
Method: as §1, §2, §3

plasmid DNA (pDNA) = assay: Gel shift (mobility shift) assay of pDNA complexation; format: binding; conditions: pDNA:molecule ratio 3:24 (w:w), 0.8% agarose gel, compared to pDNA alone
Method: Then, 10 μl of pDNA:TLR7-TLR2 polyamine molecule complexes and 2 μl of charge buffer were mixed and loaded into wells of a 0.8% agarose gel. Samples were migrated through the gel in TAE buffer under 135 voltage for 21 mins and the migration of the pDNA was visualized following ethidium bromide staining under UV light. The ability of TLR7-TLR2 polyamine molecules to complex/associate with the pDNA was identified by partial or complete retardation of the pDNA migration toward the anode in the gel compared to pDNA alone. […] Ethidium bromide intercalation of pDNA in complex with molecules allowed visualization of complexed pDNA as a smear in the wells of the gel.

Row | Compound | mice still alive (survival) (B16-F1 tumor) | ability to activate hTLR2 (human TLR2) | ability to activate mTLR7 (murine TLR7) | Mean Diameter [1] | PDI [1] | ability to activate endogenous TLR2 and TLR7 in RAW-Blue Cells [2] | ability to activate hTLR7 (human TLR7) | ability to complex pDNA (retardation of pDNA migration in agarose gel) (plasmid DNA (pDNA))
1 | dipalmitoyl-S-glyceryl cysteine-serine-(lysine)4 [Pam2CSK4, reference compound] | 60% | – | – | – | – | – | – | –
2 | CCCCCCCCCCCCCCCC(=O)OCC(CSC[C@H](N)C(=O)N[C@@H](CCCCNC(=O)CNC(=O)c1ccc(Cn2c(O)nc3c(N)nc(NCCCC)nc32)cc1)C(=O)NCCCNCCCCNCCCN)OC(=O)CCCCCCCCCCCCCCC (stereo partly drawn) [CL475, (6R,9S)-6,23-diamino-9-(4-(2-(4-((6-amino-2-(butylamino)-8-hydroxy-9H-purin-9-yl)methyl)benzamido)acetamido)butyl)-7,10-dioxo-4-thia-8,11,15,20-tetraazatrico sane-1,2-diyl dipalmitate] | – | activate hTLR2 | activate mTLR7 | 145.9 nm and 155.8 nm and 153.5 nm | 0.193 and 0.176 and 0.158 | activate endogenous TLR2 and TLR7 | activate hTLR7 | inability to migrate through an agarose gel
3 | CCCCCCCCCCCCCCCC(=O)OCC(CSC[C@H](N)C(=O)NCCCC[C@H](NC(=O)c1ccc(Cn2c(O)nc3c(N)nc(NCCCC)nc32)cc1)C(=O)NCCCNCCCCNCCCN)OC(=O)CCCCCCCCCCCCCCC (stereo partly drawn) [CL486, (6R,13S)-6,27-diamino-13-(4-((6-amino-2-(butylamino)-8-hydroxy-9H-purin-9-yl)methyl)benzamido)-7,14-dioxo-4-thia-8,15,19,24-tetraazaheptacosane-1,2-diyl dipalmitate] | – | activate hTLR2 | activate mTLR7 | 202.0 nm and 209.2 nm and 179.7 nm | 0.234 and 0.236 and 0.232 | activate endogenous TLR2 and TLR7 | activate hTLR7 | inability to migrate through an agarose gel
4 | CCCCCCCCCCCCCCCC(=O)OCC(CSC[C@H](N)C(=O)NCCCC[C@H](NC(=O)CNC(=O)c1ccc(Cn2c(O)nc3c(N)nc(NCCCC)nc32)cc1)C(=O)NCCCNCCCCNCCCN)OC(=O)CCCCCCCCCCCCCCC (stereo partly drawn) [CL487, (6R,13S)-6,27-diamino-13-(2-(4-((6-amino-2-(butylamino)-8-hydroxy-9H-purin-9-yl)methyl)benzamido)acetamido)-7,14-dioxo-4-thia-8,15,19,24-tetraazaheptacosane-1,2-diyl dipalmitate] | – | activate hTLR2 | activate mTLR7 | 165.6 nm and 160.0 nm and 148.1 nm | 0.255 and 0.241 and 0.23 | activate endogenous TLR2 and TLR7 | activate hTLR7 | inability to migrate through an agarose gel
